Measured values from US4067997A, “Synergistic microbecidal composition and method” (priority 1976, dated 1978).

Tests used:
Experiment in all cases: MIC, broth dilution (Examples I/II)
[1] = test system: Nocardia asteroides; type: cell-based, Nocardia asteroids (3308); details: Table 8, Nocardia asteroides; for MIC (second value, in parentheses): parentheses not explained
Description: (§1) In order to establish comparative bactericidal and fungicidal results with homologous fatty acids, a series of experiments was performed with thirty straight-chain fatty acids and derivatives thereof. Eight different gram-negative and twelve different gram-positive organisms, representing a very broad spectrum of organisms, were used in these experiments including the fungus Candida (a yeast). Additionally, fatty acids were chosen to show the effects of saturation versus unsaturation, in the fatty acid claim. Standard solutions of the fatty acids and their derivatives were prepared by first dissolving the weighed compounds in 1 to 2 ml of 95% ethanol and immediately pouring this solution into 200 ml of Tripticase Soy Broth. These lipid compounds which are insoluble in water and broth precipitated into very small crystals or droplets. The tubes containing the suspension were warmed to approximately 70° C and were then placed in an ultrasonic tank for further solubilization of the lipid derivatives.
(§2) Standard solutions (or suspensions) at 1,000 μg/ml were twofold serially diluted with additional broth to a concentration of 125 μg/ml. A 4-ml amount of each dilution was then quickly, and with constant agitation, dispensed into appropriately labeled screw-capped glass tubes (16 by 125 mm). The tubes were sterilized with steam at 15 psi for 15 minutes. After sterilization, all tubes were cooled and incubated overnight at 35° C to insure sterility.
(§3) All compounds were compared on a molar (micromoles/milliliter) rather than on a mass basis. In the following lists of organisms used, those followed by a parenthetical number are registered with the American Type Culture Collection (ATCC); the remainder were isolates from Providence Hospital or Northland Laboratory.
(§4) One drop (0.04 ± 0.01 ml) of an 18-hr broth culture containing 10^7 and 10^9 organisms/ml was added to each dilution of the test compound, as well as to a tube of plain broth which served as the positive control. After inoculation, the contents of each tube were well mixed, and the tubes were incubated at 35° C in a 5% carbon dioxide + […] atmosphere.
(§5) The MIC is defined as the lowest concentration of compound at which no […] evidence of growth was observed when turbidity of the inoculated broth dilutions was compared with control tubes. […] Only a one-tube difference between the bactericidal and bacteriostatic concentrations was normally observed.
(§6) Standard solutions (1000 μg/ml) of three fatty acids and polyglycerol esters thereof were prepared as described in Example I. Also sucrose esters were prepared by transferring the weighed compounds (0.2 gm. dissolved in 1 ml absolute methanol) into 200 ml of sterile Trypticase Soy Broth (TSB). These standard solutions (1000 μg/ml) were twofold serially diluted with additional sterile broth to a concentration of 125 μg/ml. A 3.8 aliquot of each dilution was asceptically delivered into sterile screw-capped culture tubes. All tubes were incubated overnight at 36° C to insure sterility. The microorganisms used in this example were the same as those used in Example I.
(§7) The inoculum, 0.05 ml of an 13-24 hour TSB culture (approximately 10^9 organisms/ml) was asceptically delivered into all dilutions of the compounds, mixed well, and incubated at 36° C. A tube of inoculated broth without the compound served as a positive control and an uninoculated set of dilutions incubated along with the test dilutions, served as a negative control.
(§8) In those cases in which the test compound itself caused turbidity, an aliquot (0.015 ml) of the mixed broth was inoculated onto an agar plate and incubated at 36° C for examination, as described in Example I. The control procedure of Example I was also repeated. The lauric, capric, and oleic acids were used as internal controls and for comparison to Example I. The minimal inhibitory concentrations (μmole/ml) for the compounds studied are given in Tables 7 and 8.

[2] = test system: Pneumococci; type: cell-based, pneumococcus (63001); details: Table 8, Pneumococci
Description: as §1, §2, §3, §4, §5, §6, §7, §8

[3] = test system: Corynebacteria; type: cell-based, Corynebacterium sp. (10700); details: Table 8, Corynebacteria; for MIC (second value, in parentheses): parentheses not explained
Description: as §1, §2, §3, §4, §5, §6, §7, §8

[4] = test system: Micrococci; type: cell-based, Micrococcus sp.; details: Table 8, Micrococci
Description: as §1, §2, §3, §4, §5, §6, §7, §8

[5] = test system: Streptococcus Group A; type: cell-based, beta-hemolytic streptococci Group A; details: Table 8, Strep. Grp. A; for MIC (second value, in parentheses): parentheses not explained
Description: as §1, §2, §3, §4, §5, §6, §7, §8

[6] = test system: S. epidermidis; type: cell-based; details: for MIC: Table 8, Staph. epider., > = no inhibition, max. tested
Description: as §1, §2, §3, §4, §5, §6, §7, §8

[7] = test system: Sarcina; type: cell-based, Sarcina lutea (9431); details: for MIC: Table 8, Sarcina, > = no inhibition, max. tested
Description: as §1, §2, §3, §4, §5, §6, §7, §8

| Substance | MIC [1] | MIC [2] | MIC [3] | MIC [4] | MIC [5] | MIC [6] | MIC [7] | MIC (second value, in parentheses) [1] | MIC (second value, in parentheses) [3] | MIC (second value, in parentheses) [5] | Inhibition in words ([6]; S. epidermis) | Inhibition in words ([7]; Sarcina) |
| --- | --- | --- | --- | --- | --- | --- | --- | --- | --- | --- | --- | --- |
| Sucrose caprate | 250 µM | 60 µM | 250 µM | 1000 µM | 60 µM | > 2000 µM | > 2000 µM | – | – | – | – | – |
| Sucrose elaidate | 200 µM | 200 µM | 1640 µM | 820 µM | 200 µM | > 1640 µM | > 1640 µM | – | – | – | – | – |
| Sucrose laurate | 470 µM | 120 µM | 470 µM | 1900 µM | 30 µM | > 1900 µM | > 1900 µM | 1900 µM | 230 µM | 120 µM | – | – |
| Sucrose linoleate | 410 µM | 50 µM | > 1660 µM | 820 µM | 410 µM | > 1660 µM | > 1660 µM | 1660 µM | 1660 µM | 820 µM | – | – |
| Sucrose myristate | 230 µM | 230 µM | 110 µM | 230 µM | 50 µM | > 1840 µM | > 1840 µM | 110 µM | 110 µM | 110 µM | – | – |
| Sucrose oleate | 410 µM | 50 µM | > 1640 µM | 210 µM | > 1640 µM | > 1640 µM | > 1640 µM | 210 µM | > 1640 µM | 410 µM | – | – |
| Sucrose palmitate | 430 µM | 50 µM | 430 µM | 260 µM | 100 µM | 860 µM | 430 µM | > 1720 µM | 260 µM | 200 µM | only ester which inhibits S. epidermis | only ester which inhibits S. epidermis and Sarcina |
